Experimental data published in patent EP0900076B1, “TRANSDERMAL DEVICE” (priority 1996, dated 1997).

Columns and labels:
clinical [1] = conditions: human, in vivo, 100 mg
[2] = postoperative monitoring during the test period
clinical [3] = conditions: female, human, in vivo, 100 mg
[4] = 10 mg morphine, end of the 24 hour delivery, mean; cited from earlier work
[5] = Example 2: transdermal morphine after elective coronary surgery, amount absorbed from the drug cell; conditions: after 48 hours, of the initial 100 mg

Row | SMILES | concentration at 0 h (clinical [1]) | concentration at 1 h (clinical [1]) | concentration at 2 h (clinical [1]) | concentration at 3 h (clinical [1]) | concentration at 3.5 h (clinical [1]) | concentration at 4 h (clinical [1]) | oxygen saturation [2] | concentration at 1 h (clinical [3]) | concentration at 32 h (clinical [3]) | concentration at 48 h (clinical [3]) | amount of drug in the reservoir was reduced [4] | morphine dose in the drug cell found to be absorbed [5]
1 | CN1CC[C@]23c4c5ccc(O)c4O[C@H]2[C@@H](O)C=C[C@H]3[C@H]1C5 [Morphine acetate] | 0 nM | 53 nM | 112 nM | 115 nM | 154 nM | 162 nM | – | – | – | – | – | –
2 | CN1CC[C@]23c4c5ccc(O)c4O[C@H]2[C@@H](O)C=C[C@H]3[C@H]1C5 [Morphine] | – | – | – | – | – | – | remained normal | 8 ± 3.5 nM | 9.8 ± 3.8 nM | 8.5 ± 1.7 nM | 75 per cent | 32 ± 6 mg
